Source: BindingDB's records for doi:10.1016/j.ejmech.2019.01.017 (Qilu University of Technology (Shandong Academy of Sciences), 2019)
pIC50: −log10 of the molar value.

Molecular target: RAC-beta serine/threonine-protein kinase (Homo sapiens, UniProt P31751)
Assay: Inhibition of PKBbeta (unknown origin)

RAC-beta serine/threonine-protein kinase, sequence (P31751 whole entry): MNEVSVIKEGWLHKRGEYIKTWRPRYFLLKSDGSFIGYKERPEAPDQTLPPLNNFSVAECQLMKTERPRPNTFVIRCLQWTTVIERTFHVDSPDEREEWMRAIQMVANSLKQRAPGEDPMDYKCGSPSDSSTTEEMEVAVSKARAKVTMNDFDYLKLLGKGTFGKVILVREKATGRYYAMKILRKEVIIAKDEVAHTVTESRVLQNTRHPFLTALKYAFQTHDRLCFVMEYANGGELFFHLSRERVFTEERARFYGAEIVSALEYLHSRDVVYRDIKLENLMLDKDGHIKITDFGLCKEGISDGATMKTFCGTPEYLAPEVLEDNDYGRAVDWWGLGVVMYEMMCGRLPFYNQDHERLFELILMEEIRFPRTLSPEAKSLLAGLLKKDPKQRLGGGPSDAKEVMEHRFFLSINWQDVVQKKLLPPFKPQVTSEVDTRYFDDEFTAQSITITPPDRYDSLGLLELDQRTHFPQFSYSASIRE

How did the pIC50 turn out when `Cc1ccc2[nH]c(=O)c(C(=O)/C=C/c3nc4ccccc4[nH]3)c(-c3ccccc3)c2c1` was run?
The pIC50 was 5.79.
